Experimental data: US20070231269A1, “Analgesics” (IONIX PHARMACEUTICALS LIMITED, priority 2002, published 2007)

Experiment: Solubility of buprenorphine hydrochloride in pectin solutions (saturated solution, hplc)
Conditions: for solubility: 18 °C, thermodynamic from solid; for Buprenorphine detected: solubility, 20 mg/ml pectin, pH 3-6, 18° C., expressed as buprenorphine free base

For `CO[C@]12CCC3(C[C@@H]1[C@](C)(O)C(C)(C)C)[C@H]1Cc4ccc(O)c5c4[C@@]3(CCN1CC1CC1)[C@H]2O5` [Buprenorphine, 5α,7α(S)-17-(cyclopropylmethyl)-α-(1,1-dimethylethyl)-4,5-epoxy-18,19-dihydro-3-hydroxy-6-methoxy-α-methyl-6,14-ethenomorphinan-7-methanol], the solubility (aqueous with cosolvent or surfactant or cyclodextrin) was > 10000 µg/mL, the solubility (pH 4.5, aqueous with cosolvent or surfactant or cyclodextrin) was < 10000 µg/mL and the Buprenorphine detected (dextrose 0-50 mg/ml) was “not affected significantly”. For the same compound, the Buprenorphine detected (mannitol 0-50 mg/ml) was “not affected significantly”.
